Results reported in ChEMBL document CHEMBL4270617, “Design, synthesis, antimicrobial, antiquorum-sensing and antitumor evaluation of new series of pyrazolopyridine derivatives” (Eur J Med Chem, 2018).
Converted amounts (≈) assume the structure as drawn.

Tests used:
[1] = Displacement of methyl green from DNA (unknown origin) incubated in dark for 24 hrs
[2] = test system: Staphylococcus aureus; assay: Antibacterial activity against Staphylococcus aureus ATCC 29213 after 24 hrs by two-fold serial dilution method; format: functional; settings: ATCC 29213, 24 h
[3] = test system: Bacillus cereus; assay: Antibacterial activity against Bacillus cereus UW 85 after 24 hrs by two-fold serial dilution method; format: functional; settings: UW 85, 24 h
[4] = test system: Escherichia coli; assay: Antibacterial activity against Escherichia coli ATCC 12435 after 24 hrs by two-fold serial dilution method; format: functional; settings: ATCC 12435, 24 h
[5] = test system: Pseudomonas aeruginosa; assay: Antibacterial activity against Pseudomonas aeruginosa PAO1 after 24 hrs by two-fold serial dilution method; format: functional; settings: PAO1, 24 h
[6] = test system: Candida albicans; assay: Antifungal activity against Candida albicans after 48 hrs by two-fold serial dilution method; format: functional
[7] = test system: Aspergillus fumigatus; assay: Antifungal activity against Aspergillus fumigatus 293 after 48 hrs by two-fold serial dilution method; format: functional; settings: Aspergillus fumigatus, 293, 48 h
[8] = test system: Aspergillus flavus; assay: Antifungal activity against Aspergillus flavus 3375 after 48 hrs by two-fold serial dilution method; format: functional; settings: Aspergillus flavus, 3375, 48 h
[9] = test system: Chromobacterium violaceum; assay: Inhibition of quorum sensing system in Chromobacterium violaceum ATCC 12472 assessed as diameter of violacein pigment inhibition at 5 mg/ml after 48 hrs
[10] = test system: HepG2; assay: Antitumor activity against human HepG2 cells assessed as inhibition of cell proliferation after 48 hrs by MTT assay; format: functional, cell-based; settings: HepG2, 48 h
[11] = test system: MCF7; assay: Antitumor activity against human MCF7 cells assessed as inhibition of cell proliferation after 48 hrs by MTT assay; format: functional, cell-based; settings: MCF7, 48 h
[12] = test system: HeLa; assay: Antitumor activity against human HeLa cells assessed as inhibition of cell proliferation after 48 hrs by MTT assay; format: functional, cell-based
[13] = test system: Ehrlich; assay: Antitumor activity against mouse EAC cells allografted in Swiss mouse assessed as mean survival time at 0.5 mg/mouse administered for 9 days (reference value: 18 day); format: functional
[14] = test system: Ehrlich; assay: Antitumor activity against mouse EAC cells allografted in Swiss mouse assessed as increase in life span at 0.5 mg/mouse administered for 9 days relative to control; format: functional
[15] = test system: Ehrlich; assay: Antitumor activity against mouse EAC cells allografted in Swiss mouse assessed as tumor volume at 0.5 mg/mouse administered for 9 days (reference value: 10.15 mL); format: functional
[16] = test system: Ehrlich; assay: Antitumor activity against mouse EAC cells allografted in Swiss mouse assessed as viable tumor cell count at 0.5 mg/mouse administered for 9 days (reference value: 77.41 10^6/ml); format: functional
[17] = test system: Mus musculus; assay: Toxicity in Swiss albino mouse implanted with mouse EAC cells assessed as hemoglobin level at 0.5 mg/mouse administered for 9 days (reference value: 7.05 g/dl); format: organism-based; settings: in vivo, 216 h
[18] = test system: Mus musculus; assay: Toxicity in Swiss albino mouse implanted with mouse EAC cells assessed as RBC count at 0.5 mg/mouse administered for 9 days (reference value: 3.59 10^6/mm3); format: organism-based; settings: in vivo, 216 h
[19] = test system: Mus musculus; assay: Toxicity in Swiss albino mouse implanted with mouse EAC cells assessed as WBC count at 0.5 mg/mouse administered for 9 days (reference value: 20.53 10^3/mm3); format: organism-based; settings: in vivo, 216 h
[20] = test system: WI-38; assay: Cytotoxicity against human W138 cells after 48 hrs by MTT assay; format: cell-based; settings: WI-38, 48 h
[21] = test system: WISH; assay: Cytotoxicity against human WISH cells after 48 hrs by MTT assay; format: cell-based

| Compound | IC50 [1] | MIC [2] | MIC [3] | MIC [4] | MIC [5] | MIC [6] | MIC [7] | MIC [8] | diameter of the inhibition zone (DIZ) [9] | IC50 [10] | IC50 [11] | IC50 ([12]; read-out: IC50) | MSD [13] | Activity [14] | Activity [15] | Activity [16] | Activity [17] | Activity [18] | Activity [19] | IC50 [20] | further results |
| --- | --- | --- | --- | --- | --- | --- | --- | --- | --- | --- | --- | --- | --- | --- | --- | --- | --- | --- | --- | --- | --- |
| CCOC(=O)C1=C(NN=C(C(C)=O)C(C)=O)Nc2[nH]nc(C)c2C1c1ccc(N(C)C)cc1 (stereo not drawn) | 35.5 µM | 2210 µM | 552 µM | 552 µM (≈ 250 µg/mL) | 552 µM | 2210 µM | 4420 µM | 1100 µM | < 2 mm | 8.48 µM | 9.74 µM | 17 µM | 49 days | 172.2% | 1.9 mL | 27.53 ×10⁶ /ml | 13.45 g/dL | 5.65 ×10⁶ /mm3 | 8.84 ×10³ /mm3 | 61.4 µM | IC50 [21]: 58.7 µM |
| COc1cccc2c1C(=O)c1c(O)c3c(c(O)c1C2=O)C[C@@](O)(C(=O)CO)C[C@@H]3O[C@H]1C[C@H](N)[C@H](O)[C@H](C)O1 [DOXORUBICIN] | 31.3 µM | – | – | – | – | – | – | – | – | 4.3 µM | – | – | 62 days | 244.4% | 1 mL | 16.36 ×10⁶ /ml | 12.75 g/dL | 5.32 ×10⁶ /mm3 | 8.96 ×10³ /mm3 | – | IC50 [12]: 5.17 µM |
| CCOC(=O)C1=C(N)Nc2[nH]nc(C)c2C1c1ccc(N(C)C)cc1 (stereo not drawn) | 32.4 µM | > 200 µg/mL | > 200 µg/mL | 683 µM (≈ 233 µg/mL) | > 200 µg/mL | > 200 µg/mL | > 200 µg/mL | > 200 µg/mL | < 2 mm | 4.24 µM | 5.06 µM | 6.22 µM | 65 days | 261.1% | 1.05 mL | 18.64 ×10⁶ /ml | 14.15 g/dL | 6.26 ×10⁶ /mm3 | 6.38 ×10³ /mm3 | 84 µM | IC50 [21]: 94.6 µM |
| CCOC(=O)C1=C(N/C=N/c2ccc([N+](=O)[O-])cc2)Nc2[nH]nc(C)c2C1c1ccc(N(C)C)cc1 (stereo not drawn) | 59.6 µM | 255 µM | 1050 µM | 128 µM (≈ 62.5 µg/mL) | 128 µM | 2040 µM | 4090 µM | 4090 µM | 7 mm | 50.9 µM | 58.6 µM | 57.8 µM | – | – | – | – | – | – | – | – | – |
| CCOC(=O)C1=C(N/N=C(/C(=O)Br)c2ccc(Cl)cc2)Nc2[nH]nc(C)c2C1c1ccc(N(C)C)cc1 (stereo not drawn) | 80.7 µM | 427 µM | 427 µM | 1710 µM (≈ 1000 µg/mL) | 1710 µM | 3410 µM | 3410 µM | 3410 µM | < 2 mm | 50.2 µM | 46.3 µM | 49.3 µM | – | – | – | – | – | – | – | – | – |
| CCOC(=O)C1=C(N/C=N/c2cccnc2Cl)Nc2[nH]nc(C)c2C1c1ccc(N(C)C)cc1 (stereo not drawn) | 30.2 µM | 65.1 µM | 65.1 µM | 65.1 µM (≈ 31.2 µg/mL) | 65.1 µM | 130 µM | 521 µM | 521 µM | < 2 mm | 4.89 µM | 4.18 µM | 4.63 µM | 59 days | 227.8% | 1.25 mL | 21.8 ×10⁶ /ml | 13.85 g/dL | 5.78 ×10⁶ /mm3 | 8.14 ×10³ /mm3 | 74.5 µM | IC50 [21]: 60.1 µM |
| CCOC(=O)C1=C(N/C=N/c2nnc(S(N)(=O)=O)s2)Nc2[nH]nc(C)c2C1c1ccc(N(C)C)cc1 (stereo not drawn) | 79.1 µM | 118 µM | 118 µM | 940 µM (≈ 500 µg/mL) | 940 µM | 940 µM | 940 µM | 940 µM | 9 mm | 38.1 µM | 34.5 µM | 26.3 µM | – | – | – | – | – | – | – | – | – |
| CCOC(=O)C1=C(N/N=C(/C(C)=O)C(=O)OCC)Nc2[nH]nc(C)c2C1c1ccc(N(C)C)cc1 (stereo not drawn) | 68.2 µM | 2070 µM | 518 µM | 518 µM (≈ 250 µg/mL) | 518 µM | 4140 µM | 2070 µM | 2070 µM | < 2 mm | > 100 µM | > 100 µM | > 100 µM | – | – | – | – | – | – | – | – | – |
| CCOC(=O)C1=C(N/C=N/c2ncc(-c3ccccc3)s2)Nc2[nH]nc(C)c2C1c1ccc(N(C)C)cc1 (stereo not drawn) | 74.2 µM | 59.2 µM | 59.2 µM | 474 µM (≈ 250 µg/mL) | 474 µM | 1900 µM | 3790 µM | 3790 µM | 3 mm | 9.79 µM | 10.1 µM | 15.4 µM | 34 days | 88.9% | 3.8 mL | 48.56 ×10⁶ /ml | 11.9 g/dL | 4.85 ×10⁶ /mm3 | 11.83 ×10³ /mm3 | 33.5 µM | IC50 [21]: 29.5 µM |
| CCOC(=O)C1=C(NN=C(C#N)C#N)Nc2[nH]nc(C)c2C1c1ccc(N(C)C)cc1 (stereo not drawn) | 44 µM | 4780 µM | 2390 µM | 2390 µM (≈ 1000 µg/mL) | 1190 µM | 2390 µM | 2390 µM | 2390 µM | < 2 mm | 13.7 µM | 12.1 µM | 15.2 µM | 39 days | 116.7% | 2.25 mL | 30.93 ×10⁶ /ml | 12.65 g/dL | 5.14 ×10⁶ /mm3 | 10.69 ×10³ /mm3 | 42.7 µM | IC50 [21]: 45.2 µM |
